The numbers were not newly measured in patent US20240180165A1, “ACTIVATION OF BIONEMATICIDE AND PLANT GROWTH PROMOTING FUNCTIONS IN A BIOTECHNOLOGICAL SOLUTION COMPRISING TWO OR MORE BACILLUS SPECIES AND ALLICIN; INDUSTRIAL PROCESS AND APPLICATION THEREOF” (TOTAL BIOTECNOLOGIA INDÚSTRIA E COMÉRICO S/A, priority 2021, published 2024), which cites them from elsewhere.

The test system of the data set is Gram-negative and Gram-positive bacteria, including the Bacillus genus. The conditions noted are these: even at low concentrations (UM).

As to `C=CCS[S+]([O-])CC=C` (stereo not shown) [allicin], the antimicrobial activity result is given as “broad antimicrobial activity”.
